From patent US9999622B2, “Pyrazolothiazole compound and medicine comprising same” (NIPPON SHINYAKU CO., LTD., priority 2014, dated 2018)
Counter-ions that a name gives are not always drawn.

Tests used:
Assay type in all cases: biochemical
[1] = target: T1, JAK1 (Homo sapiens, UniProt P23458); assay: JAK tyrosine kinase inhibitory activity in the presence of 1 mM ATP (ELISA), JAK1
T1 construct: purchased Carna Biosciences, Inc
How it was run: (§1)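 Kinase reactions ran on streptavidin-coated plates in 15 mM Tris-HCl pH 7.5, 0.01% Tween-20, 1 mM DTT, 30 °C for 1 h. Enzyme was prediluted to 7.5 nM (JAK1) or 0.75 nM (JAK2, JAK3) before addition. Phosphotyrosine was detected with HRP anti-pTyr antibody and TMB at A450.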

[2] = target: T2, JAK2 (Homo sapiens, UniProt O60674); assay: JAK tyrosine kinase inhibitory activity in the presence of 1 mM ATP (ELISA), JAK2
T2 construct: purchased Carna Biosciences, Inc
How it was run: as §1

[3] = target: T3, JAK3 (Homo sapiens, UniProt P52333); assay: JAK tyrosine kinase inhibitory activity in the presence of 1 mM ATP (ELISA), JAK3
T3 construct: purchased Carna Biosciences, Inc
T3 sequence (P52333 1-1124): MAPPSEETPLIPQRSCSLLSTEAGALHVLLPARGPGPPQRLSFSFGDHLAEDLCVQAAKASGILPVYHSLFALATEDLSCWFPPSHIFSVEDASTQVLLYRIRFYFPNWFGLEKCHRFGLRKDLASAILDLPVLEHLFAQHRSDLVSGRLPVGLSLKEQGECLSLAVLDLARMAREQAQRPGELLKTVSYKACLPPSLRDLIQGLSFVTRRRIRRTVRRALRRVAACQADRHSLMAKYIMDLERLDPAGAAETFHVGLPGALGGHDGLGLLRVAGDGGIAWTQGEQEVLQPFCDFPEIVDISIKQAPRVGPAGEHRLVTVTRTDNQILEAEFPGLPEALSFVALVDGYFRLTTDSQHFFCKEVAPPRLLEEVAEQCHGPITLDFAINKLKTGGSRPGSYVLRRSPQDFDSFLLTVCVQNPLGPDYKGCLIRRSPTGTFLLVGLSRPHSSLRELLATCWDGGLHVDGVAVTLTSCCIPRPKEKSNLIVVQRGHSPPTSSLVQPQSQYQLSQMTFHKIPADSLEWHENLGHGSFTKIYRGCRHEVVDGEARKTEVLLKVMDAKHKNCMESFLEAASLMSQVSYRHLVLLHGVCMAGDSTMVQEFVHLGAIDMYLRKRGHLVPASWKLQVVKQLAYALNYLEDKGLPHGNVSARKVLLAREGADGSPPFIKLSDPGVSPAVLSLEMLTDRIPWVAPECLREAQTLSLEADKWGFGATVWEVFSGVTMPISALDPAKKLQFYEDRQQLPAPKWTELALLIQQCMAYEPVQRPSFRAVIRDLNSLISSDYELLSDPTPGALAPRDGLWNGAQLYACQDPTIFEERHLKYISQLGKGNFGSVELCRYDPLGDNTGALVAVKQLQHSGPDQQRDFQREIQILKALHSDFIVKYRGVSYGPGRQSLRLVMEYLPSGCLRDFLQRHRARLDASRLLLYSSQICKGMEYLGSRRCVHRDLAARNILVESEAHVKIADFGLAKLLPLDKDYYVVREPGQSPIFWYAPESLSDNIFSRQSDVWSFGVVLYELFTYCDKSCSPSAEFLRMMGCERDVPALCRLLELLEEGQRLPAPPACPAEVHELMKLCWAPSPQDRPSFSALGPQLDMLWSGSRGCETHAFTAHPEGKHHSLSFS
How it was run: as §1

T1 sequence (P23458 whole entry): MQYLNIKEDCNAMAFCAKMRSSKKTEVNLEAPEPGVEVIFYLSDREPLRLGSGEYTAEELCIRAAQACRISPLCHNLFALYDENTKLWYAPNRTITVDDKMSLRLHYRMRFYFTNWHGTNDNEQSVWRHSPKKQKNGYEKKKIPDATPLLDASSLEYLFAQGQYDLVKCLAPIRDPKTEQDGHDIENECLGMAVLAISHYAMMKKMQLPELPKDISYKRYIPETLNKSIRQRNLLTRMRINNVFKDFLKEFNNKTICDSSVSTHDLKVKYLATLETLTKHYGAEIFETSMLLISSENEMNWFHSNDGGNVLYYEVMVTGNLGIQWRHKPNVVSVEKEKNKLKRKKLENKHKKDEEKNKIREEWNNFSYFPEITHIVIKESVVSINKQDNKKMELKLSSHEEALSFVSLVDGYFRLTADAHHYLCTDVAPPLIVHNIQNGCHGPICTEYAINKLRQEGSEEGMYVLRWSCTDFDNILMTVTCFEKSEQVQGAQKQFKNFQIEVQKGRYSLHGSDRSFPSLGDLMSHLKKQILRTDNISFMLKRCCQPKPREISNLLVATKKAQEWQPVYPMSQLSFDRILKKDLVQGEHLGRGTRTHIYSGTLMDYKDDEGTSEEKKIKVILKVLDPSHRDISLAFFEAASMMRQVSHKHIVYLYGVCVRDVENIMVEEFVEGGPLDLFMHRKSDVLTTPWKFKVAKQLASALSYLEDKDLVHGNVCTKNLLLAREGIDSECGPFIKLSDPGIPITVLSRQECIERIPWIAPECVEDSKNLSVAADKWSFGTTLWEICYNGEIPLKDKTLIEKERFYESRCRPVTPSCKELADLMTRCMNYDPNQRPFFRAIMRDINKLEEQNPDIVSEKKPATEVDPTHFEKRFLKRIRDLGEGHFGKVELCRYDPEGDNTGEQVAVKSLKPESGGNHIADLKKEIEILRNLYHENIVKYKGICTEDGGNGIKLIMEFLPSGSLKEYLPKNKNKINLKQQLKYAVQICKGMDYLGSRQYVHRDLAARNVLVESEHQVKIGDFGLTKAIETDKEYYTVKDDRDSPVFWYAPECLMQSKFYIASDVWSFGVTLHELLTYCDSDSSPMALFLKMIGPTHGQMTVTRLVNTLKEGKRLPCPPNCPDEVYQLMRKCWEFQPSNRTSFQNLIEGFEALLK
T2 sequence (O60674 whole entry): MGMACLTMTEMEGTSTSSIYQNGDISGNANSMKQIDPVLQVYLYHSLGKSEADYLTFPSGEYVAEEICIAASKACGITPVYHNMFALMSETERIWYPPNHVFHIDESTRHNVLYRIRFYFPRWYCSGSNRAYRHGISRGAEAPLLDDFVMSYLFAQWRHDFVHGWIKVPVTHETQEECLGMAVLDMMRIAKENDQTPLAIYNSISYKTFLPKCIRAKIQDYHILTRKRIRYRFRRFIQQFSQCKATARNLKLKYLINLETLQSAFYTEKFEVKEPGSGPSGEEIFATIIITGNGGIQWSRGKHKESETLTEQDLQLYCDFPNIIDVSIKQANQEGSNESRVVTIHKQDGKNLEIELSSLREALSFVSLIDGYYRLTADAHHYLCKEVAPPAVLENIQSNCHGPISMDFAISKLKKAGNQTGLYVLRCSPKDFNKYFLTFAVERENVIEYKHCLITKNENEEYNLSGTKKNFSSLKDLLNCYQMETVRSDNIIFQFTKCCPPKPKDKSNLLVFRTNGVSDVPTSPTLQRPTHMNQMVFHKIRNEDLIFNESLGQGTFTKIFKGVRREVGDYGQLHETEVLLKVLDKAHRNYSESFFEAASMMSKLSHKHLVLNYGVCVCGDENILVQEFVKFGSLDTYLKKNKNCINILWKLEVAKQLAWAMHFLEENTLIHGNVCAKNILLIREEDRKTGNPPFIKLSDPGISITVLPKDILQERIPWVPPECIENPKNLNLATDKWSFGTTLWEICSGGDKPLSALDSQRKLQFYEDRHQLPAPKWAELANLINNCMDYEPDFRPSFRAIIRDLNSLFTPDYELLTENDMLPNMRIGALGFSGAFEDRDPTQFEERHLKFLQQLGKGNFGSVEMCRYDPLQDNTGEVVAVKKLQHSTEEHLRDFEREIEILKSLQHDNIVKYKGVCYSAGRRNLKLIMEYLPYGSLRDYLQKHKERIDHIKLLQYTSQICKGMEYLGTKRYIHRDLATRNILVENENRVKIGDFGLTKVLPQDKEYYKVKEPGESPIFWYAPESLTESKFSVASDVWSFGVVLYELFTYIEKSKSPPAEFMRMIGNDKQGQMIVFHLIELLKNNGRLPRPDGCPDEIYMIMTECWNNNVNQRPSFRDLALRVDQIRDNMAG

IC50 [1]	IC50 [2]	IC50 [3]	Compound
47 nM	> 10000 nM	> 10000 nM	COC(=O)NC1CCN(C(=O)c2cc(N[C@H](C)C3CCCCC3)nc(-c3cnn4ccsc34)n2)CC1 [Example 161, Methyl 1-[6-[(1R)-1-cyclohexylethyl]amino-2-(pyrazolo[5,1-b][1,3]thiazol-7-yl)pyrimidine-4-carbonyl]piperidin-4-ylcarbamate]
1100 nM	> 10000 nM	> 10000 nM	COC(=O)NC1CCN(C(=O)c2cc(NC(C)c3ccncc3)nc(-c3cnn4ccsc34)n2)CC1 (stereo not drawn) [Example 162, Methyl 1-[2-(pyrazolo[5,1 b][1,3]thiazol-7-yl)-6-[1-(pyridin-4-yl)ethyl]aminopyrimidine-4-carbonyl]piperidin-4-ylcarbamate]
450 nM	> 10000 nM	5600 nM	COC(=O)NC1CCN(C(=O)c2cc(NCCC3CC3)nc(-c3cnn4ccsc34)n2)CC1 [Example 163, Methyl (1-6-[(2-cyclopropylethyl)amino]-2-(pyrazolo[5,1-b][1,3]thiazol-7-yl)pyrimidine-4-carbonylpiperidin-4-yl)carbamate]
2600 nM	> 10000 nM	> 10000 nM	COC(=O)NC1CCN(C(=O)c2cc(OCC3CN(C(=O)OC(C)(C)C)C3)nc(-c3cnn4ccsc34)n2)CC1 [Example 164, Tert-butyl 3-([6-4-[(methoxycarbonyl)amino]piperidine-1-carbonyl-2-(pyrazolo[5,1-b][1,3]thiazol-7-yl)pyrimidin-4-yl]oxymethyl)azetidine-1-carboxylate]
40 nM	> 10000 nM	1200 nM	C[C@H](Nc1cc(C(=O)N2CCC(NC(=O)C3CCC3)CC2)nc(-c2cnn3ccsc23)n1)C1CC1 [Example 165, N-1-[6-[(1S)-1-cyclopropylethyl]amino-2-(pyrazolo[5,1-b][1,3]thiazol-7-yl)pyrimidine-4-carbonyl]piperidin-4-yl cyclobutanecarboxamide]
230 nM	9500 nM	1100 nM	C[C@H](Nc1cc(C(=O)N2CCC(NC(=O)C3CCCCC3)CC2)nc(-c2cnn3ccsc23)n1)C1CC1 [Example 167, N-1-[6-[(1S)-1-cyclopropylethyl]amino-2-(pyrazolo[5,1-b][1,3]thiazol-7-yl)pyrimidine-4-carbonyl]piperidin-4-ylcyclohexanecarboxamide]
1200 nM	> 10000 nM	3200 nM	O=C(NC1CCN(C(=O)c2cc(N[C@H]3CC[C@H](O)CC3)nc(-c3cnn4ccsc34)n2)CC1)C1CC1 [Example 168, N-(1-6-[(trans-4-hydroxycyclohexyl)amino]-2-(pyrazolo[5,1-b][1,3]thiazol-7-yl)pyrimidine-4-carbonylpiperidin-4-yl)cyclopropanecarboxamide]
160 nM	6400 nM	2100 nM	C[C@@H](Nc1cc(C(=O)N2CCC(NC(=O)C3CC3)CC2)nc(-c2cnn3ccsc23)n1)C1CCCCC1 [Example 169, N-1-[6-[(1R)-1-cyclohexylethyl]amino-2-(pyrazolo[5,1-b][1,3]thiazol-7-yl)pyrimidine-4-carbonyl]piperidin-4-ylcyclopropanecarboxamide]
1600 nM	> 10000 nM	> 10000 nM	CC(Nc1cc(C(=O)N2CCC(NC(=O)C3CC3)CC2)nc(-c2cnn3ccsc23)n1)c1ccncc1 (stereo not drawn) [Example 170, N-1-[2-(pyrazolo[5,1-b][1,3]thiazol 7 yl) 6 [1-(pyridin-4-yl)ethyl]aminopyrimidine-4-carbonyl]piperidin-4-ylcyclopropanecarboxamide]
850 nM	> 10000 nM	> 10000 nM	CC(C)(C)OC(=O)N1CCC(Nc2cc(C(=O)N3CCC(NC(=O)C4CC4)CC3)nc(-c3cnn4ccsc34)n2)CC1 [Example 171, Tert-butyl 4-[6-4-[(cyclopropanecarbonyl)amino]piperidine-1-carbonyl-2-(pyrazolo[5,1-b][1,3]thiazol-7-yl)pyrimidin-4-yl]aminopiperidine-1-carboxylate]
320 nM	> 10000 nM	> 10000 nM	O=C(NC1CCN(C(=O)c2cc(NC3CCOCC3)nc(-c3cnn4ccsc34)n2)CC1)C1CC1 [Example 172, N-(1-6-[(oxan-4-yl)amino]-2-(pyrazolo[5,1-b][1,3]thiazol-7-yl)pyrimidine-4-carbonylpiperidin-4-yl)cyclopropanecarboxamide]
3400 nM	> 10000 nM	> 10000 nM	O=C(NC1CCN(C(=O)c2cc(NC3COC3)nc(-c3cnn4ccsc34)n2)CC1)C1CC1 [Example 173, N-(1-6-[(oxetan-3-yl)amino]-2-(pyrazolo[5,1-b][1,3]thiazol-7-yl)pyrimidine-4-carbonylpiperidin-4-yl)cyclopropanecarboxamide]
300 nM	> 10000 nM	5600 nM	COC(=O)NC1CCN(C(=O)c2cc(NCC(C)(C)CC3CC3)nc(-c3cnn4ccsc34)n2)CC1 [Example 174, Methyl (1-6-[(3-cyclopropyl-2,2-dimethylpropyl)amino]-2-(pyrazolo[5,1-b][1,3]thiazol-7-yl)pyrimidine-4-carbonylpiperidin-4-yl)carbamate]
96 nM	> 10000 nM	> 10000 nM	COC(=O)NC1CCN(C(=O)c2cc(NCC3CCN(S(C)(=O)=O)CC3)nc(-c3cnn4ccsc34)n2)CC1 [Example 175, Methyl 1-[6-([1-(methanesulfonyl)piperidin-4-yl]methylamino)-2-(pyrazolo[5,1-b][1,3]thiazol-7-yl)pyrimidine-4-carbonyl]piperidin 4-ylcarbamate]
78 nM	4400 nM	4600 nM	O=C(NC1CCN(C(=O)c2cc(NC3CC4CCC3C4)nc(-c3cnn4ccsc34)n2)CC1)C1CC1 [Example 176, N-1-[6-[(1R)-bicyclo[2.2.1]heptan-2-yl]amino-2-(pyrazolo[5,1-b][1,3]thiazol-7-yl)pyrimidine-4-carbonyl]piperidin-4-ylcyclopropanecarboxamide]
300 nM	> 10000 nM	> 10000 nM	COC(=O)NC1CCN(C(=O)c2cc(N[C@H]3CC[C@@H](O)CC3)nc(-c3cnn4ccsc34)n2)CC1 [Example 177, Methyl (1-6-[(cis-4-hydroxycyclohexyl)amino]-2-(pyrazolo[5,1-b][1,3]thiazol-7-yl)pyrimidine-4-carbonylpiperidin-4-yl)carbamate]
510 nM	> 10000 nM	9500 nM	COC(=O)NC1CCN(C(=O)c2cc(N[C@H]3CC[C@H](O)CC3)nc(-c3cnn4ccsc34)n2)CC1 [Example 178, Methyl (1-6-[(trans-4-hydroxycyclohexyl)amino]-2-(pyrazolo[5,1-b][1,3]thiazol-7-yl)pyrimidine-4-carbonylpiperidin-4-yl)carbamate]
320 nM	> 10000 nM	> 10000 nM	COC(=O)NC1CCN(C(=O)c2cc(NC3CCCC3)nc(-c3cnn4ccsc34)n2)CC1 [Example 179, Methyl 1-[6-(cyclopentylamino)-2-(pyrazolo[5,1-b][1,3]thiazol-7-yl)pyrimidine-4-carbonyl]piperidin-4-ylcarbamate]
560 nM	> 10000 nM	> 10000 nM	COC(=O)NC1CCN(C(=O)c2cc(NC3CCCCC3)nc(-c3cnn4ccsc34)n2)CC1 [Example 180, Methyl 1-[6-(cyclohexylamino)-2-(pyrazolo[5,1-b][1,3]thiazol-7-yl)pyrimidine-4-carbonyl]piperidin-4-ylcarbamate]
860 nM	> 10000 nM	> 10000 nM	O=C(NC1CCN(C(=O)c2cc(NC3CCNCC3)nc(-c3cnn4ccsc34)n2)CC1)C1CC1 [Example 181, N-(1-6-[(piperidin-4-yl)amino]-2-(pyrazolo[5,1-b][1,3]thiazol-7-yl)pyrimidine-4-carbonylpiperidin-4-yl)cyclopropanecarboxamide dihydrochloride]
